Counter-ions that a name gives are not always drawn. Like-named read-outs stand apart in the source and are kept apart here.
Experiments:
LSD1 = LSD1 (Homo sapiens (Human), UniProt O60341); test: LSD1 enzyme activity detection (HTRF); format: biochemical; conditions: read-out: Inhibition of enzymatic activity of LSD1 IC50
NCI-H1417 cells = test: In vitro cell proliferation detection (CellTiter-Glo, 7 days); format: cell-based; conditions: read-out: NCI-H1417 proliferation inhibition IC50
[1] = target: voltage-gated potassium ion channel hERG (Homo sapiens (Human), UniProt Q12809); test: hERG inhibition test (manual patch-clamp)
[2] = Homo sapiens, 168 h, NCI-H1417 cells, 7 days, CellTiter-Glo
[3] = read-out: hERG IC50, manual patch-clamp

Chain of voltage-gated potassium ion channel hERG (Q12809 whole entry): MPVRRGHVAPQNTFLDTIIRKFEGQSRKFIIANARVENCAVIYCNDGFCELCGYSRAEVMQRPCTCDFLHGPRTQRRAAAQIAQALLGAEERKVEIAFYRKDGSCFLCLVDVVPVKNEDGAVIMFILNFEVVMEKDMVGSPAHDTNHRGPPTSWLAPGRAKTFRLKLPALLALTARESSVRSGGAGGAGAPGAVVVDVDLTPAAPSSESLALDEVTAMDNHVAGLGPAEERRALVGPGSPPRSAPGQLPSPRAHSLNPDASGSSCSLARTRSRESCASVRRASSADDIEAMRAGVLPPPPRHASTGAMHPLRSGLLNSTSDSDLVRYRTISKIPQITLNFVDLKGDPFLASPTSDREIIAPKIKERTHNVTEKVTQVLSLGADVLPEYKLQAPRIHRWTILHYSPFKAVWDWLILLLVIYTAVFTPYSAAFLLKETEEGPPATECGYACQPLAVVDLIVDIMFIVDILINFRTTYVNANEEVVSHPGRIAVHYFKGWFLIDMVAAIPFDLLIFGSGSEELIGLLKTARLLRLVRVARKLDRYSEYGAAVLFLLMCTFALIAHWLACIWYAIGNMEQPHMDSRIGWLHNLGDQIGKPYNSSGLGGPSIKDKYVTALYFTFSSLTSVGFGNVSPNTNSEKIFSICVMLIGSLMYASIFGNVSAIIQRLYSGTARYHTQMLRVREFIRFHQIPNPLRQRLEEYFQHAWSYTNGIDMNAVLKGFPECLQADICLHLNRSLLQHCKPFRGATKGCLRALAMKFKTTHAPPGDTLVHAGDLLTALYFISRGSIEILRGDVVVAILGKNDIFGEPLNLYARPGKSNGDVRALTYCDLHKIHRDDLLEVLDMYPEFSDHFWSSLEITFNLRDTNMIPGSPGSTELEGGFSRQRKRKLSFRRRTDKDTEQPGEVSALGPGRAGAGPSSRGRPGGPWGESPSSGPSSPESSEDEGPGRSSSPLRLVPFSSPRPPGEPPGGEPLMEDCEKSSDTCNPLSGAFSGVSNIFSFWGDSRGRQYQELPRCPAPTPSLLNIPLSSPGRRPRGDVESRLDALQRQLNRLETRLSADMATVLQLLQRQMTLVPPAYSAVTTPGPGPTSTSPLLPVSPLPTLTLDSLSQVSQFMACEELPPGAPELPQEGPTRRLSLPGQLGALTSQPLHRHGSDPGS

| Structure (SMILES) | IC50 (LSD1; HTRF, H3K4me1 substrate) [nM] | IC50 (NCI-H1417 cells; [2]) [nM] | IC50 [1, 3] [µM] | IC50 [1] [µM] | IC50 (LSD1) [nM] | IC50 (NCI-H1417 cells) [nM] |
| --- | --- | --- | --- | --- | --- | --- |
| Cc1noc2cc(-c3c(O)cc(N4CCC(N)CC4)nc3-c3ccc(C#N)c(F)c3)c(F)cc12 [Example 26, 4-(6-(4-aminopiperidin-1-yl)-3-(5-fluoro-3-methylbenzo[d]isoxazol-6-yl)-4-hydroxypyridin-2-yl)-2-fluorobenzonitrile] | 3.67 ± 0.72 | 7.45 | > 30 | – | – | – |
| COc1cc(F)c(-c2c(O)cc(N3CCC(N)CC3)nc2-c2ccc(C#N)c(F)c2)cc1F [Example 41, 4-(6-(4-aminopiperidin-1-yl)-3-(2,5-difluoro-4-methoxyphenyl)-4-hydroxypyridin-2-yl)-2-fluorobenzonitrile hydrochloride] | 22.1 | 7.93 | > 30 | – | – | – |
| COc1ccc(-c2c(O)cc(N3CCC(C)(N)CC3)nc2-c2ccc(C#N)c(F)c2)cc1F [Example 50] | 7 ± 2.1 | 33.2 | 17.6 | – | – | – |
| COc1cc(N2CCC(N)CC2)nc(-c2ccc(C#N)c(F)c2)c1-c1cc2onc(C)c2cc1F [Example 90, 4-(6-(4-aminopiperidin-1-yl)-3-(5-fluoro-3-methylbenzo[d]isoxazol-6-yl)-4-methoxypyridin-2-yl)-2-fluorobenzonitrile] | 7.48 | 5.34 | 4.62 | – | – | – |
| COc1cc(N2CCC(N)CC2)nc(-c2ccc(C#N)c(F)c2)c1-c1cc(O)c(F)c(F)c1 [Example 92, 4-(6-(4-aminopiperidin-1-yl)-3-(3,4-difluoro-5-hydroxyphenyl)-4-methoxypyridin-2-yl)-2-fluorobenzonitrile] | 8.2 ± 0.1 | 8.78 | 10.9 | – | – | – |
| COc1cc(N2CCC(N)CC2)nc(-c2ccc(C#N)c(F)c2)c1-c1ccc(C)c(O)c1 [Example 95, 4-(6-(4-aminopiperidin-1-yl)-3-(3-hydroxy-4-methylphenyl)-4-methoxypyridin-2-yl)-2-fluorobenzonitrile hydrochloride] | 0.16 ± 0.11 | 0.467 | 6.92 | – | – | – |
| COc1cc(N2CCC(N)CC2)nc(-c2ccc(C#N)c(F)c2)c1-c1ccc(Cl)c(O)c1 [Example 98, 4-(6-(4-aminopiperidin-1-yl)-3-(4-chloro-3-hydroxyphenyl)-4-methoxypyridin-2-yl)-2-fluorobenzonitrile hydrochloride] | – | 0.604 | 5.85 | – | – | – |
| COc1ccc(-c2c(OC(C)C)cc(N3CCC(N)CC3)nc2-c2ccc(C#N)c(F)c2)cc1O [Example 104, 4-(6-(4-aminopiperidin-1-yl)-3-(3-hydroxy-4-methoxyphenyl)-4-isopropoxypyridin-2-yl)-2-fluor obenzonitrile] | 0.7 ± 0.02 | 1.76 | – | 6.7 | – | – |
| COc1ccc(-c2c(OC3CCCC3)cc(N3CCC(N)CC3)nc2-c2ccc(C#N)c(F)c2)cc1O [Example 105, 4-(6-(4-aminopiperidin-1-yl)-4-(cyclopentyloxy)-3-(3-hydroxy-4-methoxyphenyl)pyridin-2-yl)-2-fluorobenzonitrile] | 2.3 ± 0.04 | 5.45 | 5.6 | – | – | – |
| COc1ccc(-c2c(-c3ccc(C#N)c(F)c3)nc(N3CCC(N)CC3)n3ccnc23)cc1F [Example 117, 4-(5-(4-aminopiperidin-1-yl)-8-(3-fluoro-4-methoxyphenyl)imidazolo[1,2-c]pyrimidin-7-yl]-2-fl uorobenzonitrile hydrochloride] | – | 3.76 | 7.19 | – | 0.46 ± 0.02 | – |
| COc1ccc(-c2c(-c3ccc(C#N)c(F)c3)nc(N3CCC(N)CC3)n3ccnc23)cn1 [Example 121, 4-(5-(4-aminopiperidin-1-yl)-8-(6-methoxypyridin-3-yl)imidazolo [1,2-c]pyrimidin-7-yl)-2-fluorobenzonitrile] | 3.15 ± 1.03 | 8.38 | 6.04 | – | – | – |
| CC(C)(O)Cc1ccc(-c2c(-c3ccc(C#N)c(F)c3)nc(N3CCC(N)CC3)n3ccnc23)c(F)c1 [Example 132, 4-(5-(4-aminopiperidin-1-yl)-8-(2-fluoro-4-(2-hydroxy-2-methylpropyl)phenyl)imidazolo[1,2-c]pyrimidin-7-yl)-2-fluorobenzonitrile hydrochloride] | 5.62 | 11.9 | > 30 | – | – | – |
| N#Cc1ccc(-c2nc(N3CCC(N)CC3)n3ccnc3c2-c2ccc(OC(F)(F)F)c(O)c2)cc1F [Example 133, 4-(5-(4-aminopiperidin-1-yl)-8-(3-hydroxy-4-(trifluoromethoxy)phenyl)imidazolo [1,2-c]pyrimidin-7-yl)-2-fluorobenzonitrile hydrochloride] | 0.54 ± 0.32 | 1.04 | 7.17 | – | – | – |
| CC(C)(O)Cc1ccc(-c2c(-c3ccc(C#N)c(F)c3)nc(N3CCC(N)CC3)n3ccnc23)cc1F [Example 134, 4-(5-(4-aminopiperidin-1-yl)-8-(3-fluoro-4-(2-hydroxy-2-methylpropyl)phenyl)imidazolo [1,2-c]pyrimidin-7-yl)-2-fluorobenzonitrile] | 6.1 ± 1.9 | 7.25 | 18.4 | – | – | – |
| COc1ccc(-c2c(-c3ccc(C#N)c(F)c3)nc(N3CCC(N)CC3)n3ccnc23)cc1C#N [Example 135, 4-(5-(4-aminopiperidin-1-yl)-8-(3-cyano-4-methoxyphenyl)imidazolo[1,2-c]pyrimidin-7-yl)-2-fluorobenzonitrile] | 9.6 ± 2.7 | 8.19 | 23.4 | – | – | – |
| COc1ccc(-c2c(OC)cc(N3CCC(N)CC3)cc2-c2ccc(C#N)c(F)c2)cc1O [Example 267, 5′-(4-aminopiperidin-1-yl)-3-fluoro-3″-hydroxy-3′,4″-dimethoxy-[1,1′:2′,1″-terphenyl]-4-nitrile trifluoroacetate] | 1 ± 0.4 | 3.87 | – | – | – | – |
| Cc1ccc(-c2c(-c3ccc(C#N)c(F)c3)nc(N3CCC(N)CC3)c3ccoc23)cc1O [Example 268, 4-(4-(4-aminopiperidin-1-yl)-7-(3-hydroxy-4-methylphenyl)furan[3,2-c]pyridin-6-yl)-2-fluorobe nzonitrile hydrochloride] | – | – | – | – | 1.5 ± 0.5 | 0.378 |

Now from value to compound, other results behind:

| IC50 (LSD1; HTRF, H3K4me1 substrate) [nM] | IC50 (NCI-H1417 cells; [2]) [nM] | Structure (SMILES) | IC50 [1, 3] [µM] | IC50 [1] [µM] | IC50 (LSD1) [nM] | IC50 (NCI-H1417 cells) [nM] |
| --- | --- | --- | --- | --- | --- | --- |
| 10.1 | 8.64 | COc1ccc(-c2c(-c3ccc(C#N)c(F)c3)nc(N3CCC(N)CC3)c3nc[nH]c23)cc1F [Example 270, 4-(4-(4-aminopiperidin-1-yl)-7-(3-fluoro-4-methoxyphenyl)-1H-imidazolo[4,5-c]pyridin-6-yl)-2-fluorobenzonitrile hydrochloride] | – | – | – | – |
| 0.5 ± 0.4 | 9.77 | COc1ccc(-c2c(-c3ccc(C#N)c(F)c3)nc(N3CCC(N)CC3)c3nc[nH]c23)cc1O [Example 271, 4-(4-(4-aminopiperidin-1-yl)-7-(3-hydroxy-4-methoxyphenyl)-1H-imidazolo[4,5-c]pyridin-6-yl)-2-fluorobenzonitrile hydrochloride] | – | – | – | – |
| 1.8 ± 0.8 | 11 | Cc1noc2cc(-c3c(-c4ccc(C#N)c(F)c4)nc(N4CCC(N)CC4)c4nc[nH]c34)c(F)cc12 [Example 272, 4-(4-(4-aminopiperidin-1-yl)-7-(5-fluoro-3-methylbenzo[d]isoxazol-6-yl)-1H-imidazolo[4,5-c]pyridin-6-yl)-2-fluorobenzonitrile] | – | – | – | – |
| 0.94 | 3.6 | Cc1noc2cc(-c3c(C#N)cc(N4CCC(N)CC4)nc3-c3ccc(C#N)c(F)c3)c(F)cc12 [Example 275, 6-(4-aminopiperidin-1-yl)-2-(4-cyano-3-fluorophenyl)-3-(5-fluoro-3-methylbenzo[d]isoxazol-6-yl)isonionitrile] | – | – | – | – |
| 0.1 ± 0.01 | 1.1 ± 0.7 | COc1ccc(-c2c(C)nc(N3CCC(N)CC3)c(C#N)c2-c2ccc(C#N)c(F)c2)cc1O [Example 276, 2-(4-aminopiperidin-1-yl)-4-(4-cyano-3-fluorophenyl)-5-(3-hydroxy-4-methoxyphenyl)-6-meth ylpyridine-3-carbonitrile] | – | – | – | – |
| 0.39 | 1.33 | Cc1nc(N2CCC(N)CC2)c(C#N)c(-c2ccc(C#N)c(F)c2)c1-c1cc2onc(C)c2cc1F [Example 277, 2-(4-aminopiperidin-1-yl)-4-(4-cyano-3-fluorophenyl)-5-(5-fluoro-3-methylbenzo[d]isoxazol-6-yl)-6-methylnicotinonitrile] | – | – | – | – |
| 0.3 ± 0.1 | 0.648 | COc1ccc(-c2c(-c3ccc(C#N)c(F)c3)nc(N3CCC(N)CC3)c3ncoc23)cc1O [Example 278, 4-(4-(4-aminopiperidin-1-yl)-7-(3-hydroxy-4-methoxyphenyl)oxazolo[4,5-c]pyridin-6-yl)-2-fluo robenzonitrile] | – | – | – | – |
| 2.27 | 6.61 | Cc1noc2cc(-c3c(-c4ccc(C#N)c(F)c4)nc(N4CCC(N)CC4)c4ncoc34)c(F)cc12 [Example 279, 4-(4-(4-aminopiperidin-1-yl)-7-(5-fluoro-3-methylbenzo[d]isoxazol-6-yl)oxazolo[4,5-c]pyridin-6-yl)-2-fluorobenzonitrile] | – | – | – | – |
| 3.5 | 4.58 | Cc1noc2cc(-c3c(-c4ccc(C#N)c(F)c4)nc(N4CCC(N)CC4)c4c3cnn4C)c(F)cc12 [Example 286, 4-(7-(4-aminopiperidin-1-yl)-4-(5-fluoro-3-methylbenzo[d]isoxazol-6-yl)-1-methyl-1H-pyrazolo [3,4-c]pyridin-5-yl)-2-fluorobenzonitrile] | – | – | – | – |
| 0.265 | 5.97 | COc1ccc(-c2c(-c3ccc(C#N)c(F)c3)nc(N3CCC(N)CC3)c3[nH]ncc23)cc1O [Example 287, 4-(7-(4-aminopiperidin-1-yl)-4-(3-hydroxy-4-methoxyphenyl)-1H-pyrazolo[3,4-c]pyridin-5-yl)-2-fluorobenzonitrile hydrochloride] | – | – | – | – |
| 0.591 | 6.33 | Cc1noc2cc(-c3c(-c4ccc(C#N)c(F)c4)nc(N4CCC(N)CC4)c4[nH]ncc34)c(F)cc12 [Example 288, 4-(7-(4-aminopiperidin-1-yl)-4-(5-fluoro-3-methylbenzo[d]isoxazol-6-yl)-1H-pyrazole[3,4-c]pyridin-5-yl)-2-fluorobenzonitrile hydrochloride] | – | – | – | – |

From patent publication US20240216357A1 (SICHUAN HUIYU PHARMACEUTICAL CO., LTD., priority 2021, published 2024)
